Results: ChEMBL document CHEMBL3885881, “DrugMatrix”

Organism: Rattus norvegicus
Assay: DrugMatrix - Regimen: Daily Repeat
Format: toxicity, organism-based, Sprague-Dawley
Design: regimen Daily Repeat, gender Male, age 6-8 weeks
Conditions: in vivo, po, route oral GAVAGE, vehicle 100 % WATER; for ABSOLUTE BASOPHIL / ABSOLUTE EOSINOPHIL / ABSOLUTE LYMPHOCYTE / ABSOLUTE MONOCYTE / ABSOLUTE SEGMENTED NEUTROPHIL / BASOPHIL / EOSINOPHIL / ERYTHROCYTE COUNT / HEMATOCRIT / HEMOGLOBIN / LEUKOCYTE COUNT / LYMPHOCYTE / MEAN CORPUSCULAR HEMOGLOBIN / MEAN CORPUSCULAR HEMOGLOBIN CONCENTRATION / MEAN CORPUSCULAR VOLUME / MONOCYTE / NEUTROPHIL / NUCLEATED RED BLOOD CELLS / PLATELET COUNT: tissue Blood; for ALANINE AMINOTRANSFERASE / ALBUMIN / ALKALINE PHOSPHATASE / ASPARTATE AMINOTRANSFERASE / BLOOD UREA NITROGEN / CARBON DIOXIDE / CHLORIDE / CHOLESTEROL / CREATINE PHOSPHOKINASE / CREATININE / GLUCOSE / LACTATE DEHYDROGENASE / LIPASE / PHOSPHORUS / POTASSIUM / SODIUM / TOTAL BILIRUBIN / TOTAL PROTEIN / URIC ACID: tissue Plasma
[1] = 10 mg/kg, 120 h, dose level Low, time 5 day
[2] = 230 mg/kg, 72 h, dose level High, time 3 day
[3] = 230 mg/kg, 120 h, dose level High, time 5 day

SMILES: CCN(CC)CC#CCOC(=O)C(O)(c1ccccc1)C1CCCCC1 (centres undefined) [OXYBUTYNIN]
- ABSOLUTE BASOPHIL [1]: 0 CELLS/uL
- ABSOLUTE EOSINOPHIL [1]: 0 CELLS/uL
- ABSOLUTE LYMPHOCYTE [1]: 12363 CELLS/uL
- ABSOLUTE MONOCYTE [1]: 41 CELLS/uL
- ABSOLUTE SEGMENTED NEUTROPHIL [1]: 1896 CELLS/uL
- BASOPHIL [1]: 0%
- EOSINOPHIL [1]: 0%
- ERYTHROCYTE COUNT [1]: 5.64 x10E6/uL
- HEMATOCRIT [1]: 34.63%
- HEMOGLOBIN [1]: 13.8 G/DL
- LEUKOCYTE COUNT [1]: 14.3 x10E3/uL
- LYMPHOCYTE [1]: 86.33%
- MEAN CORPUSCULAR HEMOGLOBIN [1]: 24.47 pg
- MEAN CORPUSCULAR HEMOGLOBIN CONCENTRATION [1]: 39.83 G/DL
- MEAN CORPUSCULAR VOLUME [1]: 61.4 fL
- MONOCYTE [1]: 0.33%
- NEUTROPHIL [1]: 13.33%
- NUCLEATED RED BLOOD CELLS [1]: 0 /100WBC
- PLATELET COUNT [1]: 1196.33 x10E3/uL
- ALANINE AMINOTRANSFERASE [1]: 57 u/L
- ALBUMIN [1]: 4.07 G/DL
- ALKALINE PHOSPHATASE [1]: 391.67 u/L
- ASPARTATE AMINOTRANSFERASE [1]: 79 u/L
- BLOOD UREA NITROGEN [1]: 17.67 mg/dL
- CARBON DIOXIDE [1]: 27 mmol/L
- CHLORIDE [1]: 99.67 MEQ/L
- CHOLESTEROL [1]: 67 mg/dL
- CREATINE PHOSPHOKINASE [1]: 306.33 u/L
- CREATININE [1]: 0.2 mg/dL
- GLUCOSE [1]: 152.33 mg/dL
- LACTATE DEHYDROGENASE [1]: 146.67 u/L
- LIPASE [1]: 9 u/L
- PHOSPHORUS [1]: 11.87 mg/dL
- POTASSIUM [1]: 6.33 MEQ/L
- SODIUM [1]: 141.53 MEQ/L
- TOTAL BILIRUBIN [1]: 0.23 mg/dL
- TOTAL PROTEIN [1]: 5.87 G/DL
- URIC ACID [1]: 1.93 mg/dL
- ABSOLUTE BASOPHIL [2]: 0 CELLS/uL
- ABSOLUTE EOSINOPHIL [2]: 99.33 CELLS/uL
- ABSOLUTE LYMPHOCYTE [2]: 11911 CELLS/uL
- ABSOLUTE MONOCYTE [2]: 110.67 CELLS/uL
- ABSOLUTE SEGMENTED NEUTROPHIL [2]: 1845.67 CELLS/uL
- BASOPHIL [2]: 0%
- EOSINOPHIL [2]: 0.67%
- ERYTHROCYTE COUNT [2]: 6.5 x10E6/uL
- HEMATOCRIT [2]: 39.53%
- HEMOGLOBIN [2]: 15.4 G/DL
- LEUKOCYTE COUNT [2]: 13.97 x10E3/uL
- LYMPHOCYTE [2]: 85.67%
- MEAN CORPUSCULAR HEMOGLOBIN [2]: 23.7 pg
- MEAN CORPUSCULAR HEMOGLOBIN CONCENTRATION [2]: 38.93 G/DL
- MEAN CORPUSCULAR VOLUME [2]: 60.77 fL
- MONOCYTE [2]: 0.67%
- NEUTROPHIL [2]: 13%
- NUCLEATED RED BLOOD CELLS [2]: 0 /100WBC
- PLATELET COUNT [2]: 1396.33 x10E3/uL
- ALANINE AMINOTRANSFERASE [2]: 51.33 u/L
- ALBUMIN [2]: 4.33 G/DL
- ALKALINE PHOSPHATASE [2]: 293.33 u/L
- ASPARTATE AMINOTRANSFERASE [2]: 83.33 u/L
- BLOOD UREA NITROGEN [2]: 16 mg/dL
- CARBON DIOXIDE [2]: 29.67 mmol/L
- CHLORIDE [2]: 98 MEQ/L
- CHOLESTEROL [2]: 57.33 mg/dL
- CREATINE PHOSPHOKINASE [2]: 488 u/L
- CREATININE [2]: 0.18 mg/dL
- GLUCOSE [2]: 140.67 mg/dL
- LACTATE DEHYDROGENASE [2]: 180 u/L
- LIPASE [2]: 9.67 u/L
- PHOSPHORUS [2]: 11.4 mg/dL
- POTASSIUM [2]: 6.48 MEQ/L
- SODIUM [2]: 141.17 MEQ/L
- TOTAL BILIRUBIN [2]: 0.23 mg/dL
- TOTAL PROTEIN [2]: 5.87 G/DL
- URIC ACID [2]: 2.47 mg/dL
- ABSOLUTE BASOPHIL [3]: 0 CELLS/uL
- ABSOLUTE EOSINOPHIL [3]: 0 CELLS/uL
- ABSOLUTE LYMPHOCYTE [3]: 14094.33 CELLS/uL
- ABSOLUTE MONOCYTE [3]: 0 CELLS/uL
- ABSOLUTE SEGMENTED NEUTROPHIL [3]: 1405.67 CELLS/uL
- BASOPHIL [3]: 0%
- EOSINOPHIL [3]: 0%
- ERYTHROCYTE COUNT [3]: 6.31 x10E6/uL
- HEMATOCRIT [3]: 37.53%
- HEMOGLOBIN [3]: 15.13 G/DL
- LEUKOCYTE COUNT [3]: 15.5 x10E3/uL
- LYMPHOCYTE [3]: 90.67%
- MEAN CORPUSCULAR HEMOGLOBIN [3]: 23.97 pg
- MEAN CORPUSCULAR HEMOGLOBIN CONCENTRATION [3]: 40.33 G/DL
- MEAN CORPUSCULAR VOLUME [3]: 59.43 fL
- MONOCYTE [3]: 0%
- NEUTROPHIL [3]: 9.33%
- NUCLEATED RED BLOOD CELLS [3]: 0 /100WBC
- PLATELET COUNT [3]: 1402.33 x10E3/uL
- ALANINE AMINOTRANSFERASE [3]: 64.67 u/L
- ALBUMIN [3]: 4.33 G/DL
- ALKALINE PHOSPHATASE [3]: 412.33 u/L
- ASPARTATE AMINOTRANSFERASE [3]: 87 u/L
- BLOOD UREA NITROGEN [3]: 15.67 mg/dL
- CARBON DIOXIDE [3]: 26.67 mmol/L
- CHLORIDE [3]: 100.33 MEQ/L
- CHOLESTEROL [3]: 59.67 mg/dL
- CREATINE PHOSPHOKINASE [3]: 224 u/L
- CREATININE [3]: 0.17 mg/dL
- GLUCOSE [3]: 140.33 mg/dL
- LACTATE DEHYDROGENASE [3]: 208.33 u/L
- LIPASE [3]: 9.33 u/L
- PHOSPHORUS [3]: 10 mg/dL
- POTASSIUM [3]: 6.76 MEQ/L
- SODIUM [3]: 143.4 MEQ/L
- TOTAL BILIRUBIN [3]: 0.2 mg/dL
- TOTAL PROTEIN [3]: 5.9 G/DL
- URIC ACID [3]: 2.23 mg/dL
